Measurements published in patent publication US20240132473A1, “SULFOXIMIDE SUBSTITUTED INDAZOLE IRAK4 KINASE INHIBITOR, PREPARATION METHOD THEREOF AND USE THEREOF” (Shanghai Xunhe Pharmaceutical Technology Co. Ltd., priority 2021, published 2024).
Each block holds one compound with its values, some of them ahead of it.

Key:
[1] = Pharmacokinetic test in SD rats, single intragastric administration; settings: rat, po; for Cmax / AUC(0-t) / Tmax: 25 mg/kg; for half-life: SD
Experimental: SD rats were used as the test animals.
Standard curve and preparation and processing of quality control samples:
Stock solution was diluted with 50% acetonitrile-water to obtain standard working solutions of 0.04, 0.10, 0.20, 0.40, 1.00, 2.00, 4.00 μg/mL, and quality control working solutions of 0.10, 1.00, 3.00 μg/mL. […] 200 μL of acetonitrile (containing 5 ng/mL of the internal standard loratadine) was added. After the vortex oscillation for 3 minutes, the solutions were centrifuged at 15000 rpm at 4° C. for 15 minutes. 100 μL of the supernatant was taken for LC-MS/MS analysis. WinNonlin ® 8.0 was used to calculate the experimental results.

hERG potassium channel = hERG potassium channel (Homo sapiens (Human), UniProt Q12809); assay: cell-based; settings: human
hERG potassium channel, sequence (Q12809 whole entry): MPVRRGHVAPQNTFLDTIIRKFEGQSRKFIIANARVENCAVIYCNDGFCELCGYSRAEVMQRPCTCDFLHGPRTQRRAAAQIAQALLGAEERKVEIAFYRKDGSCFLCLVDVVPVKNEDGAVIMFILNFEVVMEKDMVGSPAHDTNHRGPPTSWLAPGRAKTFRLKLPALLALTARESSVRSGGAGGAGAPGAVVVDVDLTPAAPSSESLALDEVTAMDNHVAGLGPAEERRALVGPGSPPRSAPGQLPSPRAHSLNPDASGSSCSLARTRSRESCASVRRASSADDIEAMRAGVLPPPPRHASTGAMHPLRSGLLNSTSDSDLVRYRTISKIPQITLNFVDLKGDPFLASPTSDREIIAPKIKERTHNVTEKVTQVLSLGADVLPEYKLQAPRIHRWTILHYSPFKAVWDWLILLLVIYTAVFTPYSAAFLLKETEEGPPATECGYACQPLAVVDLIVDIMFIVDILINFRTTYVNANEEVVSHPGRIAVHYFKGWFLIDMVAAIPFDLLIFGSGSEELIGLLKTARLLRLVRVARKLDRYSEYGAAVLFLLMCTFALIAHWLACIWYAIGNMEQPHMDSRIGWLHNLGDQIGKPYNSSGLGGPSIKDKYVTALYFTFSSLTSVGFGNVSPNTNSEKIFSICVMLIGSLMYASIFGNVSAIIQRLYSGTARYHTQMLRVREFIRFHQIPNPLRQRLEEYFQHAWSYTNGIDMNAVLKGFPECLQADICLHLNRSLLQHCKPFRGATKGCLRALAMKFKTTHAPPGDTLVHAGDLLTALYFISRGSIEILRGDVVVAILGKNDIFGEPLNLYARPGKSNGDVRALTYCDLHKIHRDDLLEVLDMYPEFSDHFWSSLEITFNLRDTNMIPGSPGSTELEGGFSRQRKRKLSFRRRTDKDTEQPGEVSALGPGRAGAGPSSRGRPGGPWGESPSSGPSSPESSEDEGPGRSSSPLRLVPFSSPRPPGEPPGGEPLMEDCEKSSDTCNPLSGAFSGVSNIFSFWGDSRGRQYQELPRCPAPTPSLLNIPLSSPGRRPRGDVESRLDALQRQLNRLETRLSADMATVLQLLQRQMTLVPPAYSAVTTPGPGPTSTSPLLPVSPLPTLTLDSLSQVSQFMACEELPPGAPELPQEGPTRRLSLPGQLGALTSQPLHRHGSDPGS
Source text: The rapid activation of delayed rectifier outward potassium current (IKr) in humans is mainly mediated by hERG ion channel and participates in human myocardial cell repolarization. Drug blockade of this current will lead to the appearance of QT interval prolongation syndrome in clinical practice, which can easily induce acute arrhythmia and even sudden death.

in vivo = settings: ICR, mouse, po
Experimental: On the day of administration, observations were made approximately 0.5, 1, 2, 4, and 6 hours after the first administration. During day 2 to day 6 of the observation period, observations were made twice a day, once in the morning and once in the afternoon.
Observations included but not limited to: general conditions, behavioral activities, gait and posture, eyes, mouth, nose, gastrointestinal tract, skin hair and urogenital tract.
Weight data were expressed as mean ±standard deviation. Levene's test and one-way analysis of variance were used for comparison between groups. If there was a difference, Dunnet t test was then used.
The maximum tolerated dose refers to the dose administered when the animal was dying.

[2] = tested on: TNF-α secretion in THP-1 cells; assay: Inhibition of LPS-stimulated TNF-α secretion in THP-1 cells (ELISA); assay type: cell-based; settings: Homo sapiens, LPS 1 μg/mL, 4.5 hours
Experimental: TNF-α is a key cytokine involved in the inflammatory process of the listed autoimmune disease, such as rheumatoid arthritis, psoriatic arthritis, ankylosing spondylitis, psoriasis, Crohn's disease, ulcerative colitis, etc. In this test, TNF-α secretion was triggered by incubation with bacterial lipopolysaccharides (LPS). […] The 96-well plate was rotated at 2000 rpm for 5 minutes, and then 50 μL of supernatant was taken. The content of TNF-α in the supernatant was determined by human ELISA kit, and IC50 value of the compound was calculated by XL-Fit (table 4).

IRAK4 kinase = IRAK4 kinase (Homo sapiens (Human), UniProt Q9NWZ3); assay: IRAK4 kinase inhibitory activity assay (mobility shift assay, Km ATP); assay type: biochemical; settings: MSA, ATP 37 μM (Km ATP)
IRAK4 kinase, sequence (Q9NWZ3 whole entry): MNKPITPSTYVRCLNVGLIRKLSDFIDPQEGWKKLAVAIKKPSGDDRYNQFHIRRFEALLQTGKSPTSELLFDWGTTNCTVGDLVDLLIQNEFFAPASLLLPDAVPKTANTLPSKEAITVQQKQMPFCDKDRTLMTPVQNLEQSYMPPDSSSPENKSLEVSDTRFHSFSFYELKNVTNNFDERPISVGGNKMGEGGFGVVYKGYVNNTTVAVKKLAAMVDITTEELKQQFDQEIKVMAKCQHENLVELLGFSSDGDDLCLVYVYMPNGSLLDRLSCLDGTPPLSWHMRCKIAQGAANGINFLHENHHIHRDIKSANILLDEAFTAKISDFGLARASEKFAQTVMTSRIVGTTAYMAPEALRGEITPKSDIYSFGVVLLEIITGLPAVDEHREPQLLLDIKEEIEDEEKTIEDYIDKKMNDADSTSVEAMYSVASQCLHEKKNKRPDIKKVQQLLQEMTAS
Experimental: The inhibitory activity (IC50) of the compound on IRAK4 kinase under Km ATP was detected by mobility shift assay (MSA). Ten drug concentration gradients were set (initial concentration 1 μM, 3-fold dilution, 2 duplicate wells per concentration). […] After incubation at 28° C. for a period of time, 10 μL of termination buffer was added to terminate the reaction. The conversion rate data was read with Caliper, and then the conversion rate was converted into inhibition rate data. According to the inhibition rate data of each concentration, the IC50 of half inhibitory concentration was calculated by Logit method (Table 3).

Compound: CC(C)(O)CCn1cc2cc(NC(=O)c3cccc(C(F)(F)F)n3)c(C(C)(C)O)cc2n1 [BAY-1830839, reference compound]
Cmax ([1]; in vivo): 223 ng/mL

Compound: CC(C)(O)c1cc2nn(CCS(C)(=O)=O)cc2cc1NC(=O)c1cccc(C(F)(F)F)n1 [BAY-1834845, reference compound]
Cmax ([1]; in vivo): 201 ng/mL

Compound: COc1cc2nn(CCS(=N)(=O)c3ccccc3)cc2cc1NC(=O)c1cccc(C(F)(F)F)n1 (stereo not shown) [Compound I-1]
Inhibition rate (%) of hERG current (hERG potassium channel; 5 μM): -1.0% | Inhibition rate (%) of hERG current (hERG potassium channel; 50 μM): 2.3% | Inhibition rate (%) of hERG current (hERG potassium channel; 500 μM): 15.6% | MTD at 6 days (in vivo): > 2000 mg/kg | IC50 [2]: 0.5 nM | half-life ([1]; in vivo): 5 h | AUC(0-t) ([1]; plasma): 8330 ng·h/mL | Cmax ([1]; plasma): 1600 ng/mL | Tmax ([1]; plasma): 6.2 h | IC50 (IRAK4 kinase): 0.3 nM

Compound: CC(C)(O)c1cc2nn(CCS(=N)(=O)c3ccccc3)cc2cc1NC(=O)c1cccc(C(F)(F)F)n1 (stereo not shown) [Compound I-2]
Inhibition rate (%) of hERG current (hERG potassium channel; 5 μM): -0.5% | Inhibition rate (%) of hERG current (hERG potassium channel; 50 μM): 0.7% | Inhibition rate (%) of hERG current (hERG potassium channel; 500 μM): 12.3% | MTD at 6 days (in vivo): > 2000 mg/kg | IC50 [2]: 0.3 nM | half-life ([1]; in vivo): 5.5 h | AUC(0-t) ([1]; plasma): 8100 ng·h/mL | Cmax ([1]; plasma): 1580 ng/mL | Tmax ([1]; plasma): 6.5 h | IC50 (IRAK4 kinase): 0.5 nM

Compound: COc1cc2nn(CCS(=N)(=O)c3ccncc3)cc2cc1NC(=O)c1cccc(C(F)(F)F)n1 (stereo not shown) [Compound I-5]
Inhibition rate (%) of hERG current (hERG potassium channel; 5 μM): 0.0% | Inhibition rate (%) of hERG current (hERG potassium channel; 50 μM): -1.0% | Inhibition rate (%) of hERG current (hERG potassium channel; 500 μM): 13.4% | MTD at 6 days (in vivo): > 2000 mg/kg | IC50 [2]: 0.7 nM | half-life ([1]; in vivo): 5.1 h | AUC(0-t) ([1]; plasma): 8280 ng·h/mL | Cmax ([1]; plasma): 1400 ng/mL | Tmax ([1]; plasma): 6.2 h | IC50 (IRAK4 kinase): 0.4 nM

Compound: CC(C)(O)c1cc2nn(CCS(=N)(=O)c3ccncc3)cc2cc1NC(=O)c1cccc(C(F)(F)F)n1 (stereo not shown) [Compound I-6]
IC50 [2]: 0.6 nM | IC50 (IRAK4 kinase): 0.2 nM

Compound: N=S(=O)(CCn1cc2cc(NC(=O)c3cccc(C(F)(F)F)n3)c(N3CCOCC3)cc2n1)c1ccncc1 (stereo not shown) [Compound I-7]
MTD at 6 days (in vivo): > 2000 mg/kg | IC50 [2]: 1.2 nM | half-life ([1]; in vivo): 5 h | AUC(0-t) ([1]; plasma): 8630 ng·h/mL | Cmax ([1]; plasma): 1500 ng/mL | Tmax ([1]; plasma): 5 h | IC50 (IRAK4 kinase): 0.5 nM

Compound: N=S(=O)(CCn1cc2cc(NC(=O)c3cccc(C(F)(F)F)n3)c(N3CCC(O)C3)cc2n1)c1ccncc1 (stereo not shown) [Compound I-8]
IC50 [2]: 0.9 nM | IC50 (IRAK4 kinase): 0.6 nM

Compound: Cc1cc2nn(CCS(=N)(=O)c3ccccc3)cc2cc1NC(=O)c1cccc(C(F)(F)F)n1 (stereo not shown) [Compound I-13]
IC50 [2]: 1.1 nM | IC50 (IRAK4 kinase): 0.4 nM

Compound: COc1cc2nn(CCS(=N)(=O)c3ccncc3)cc2cc1NC(=O)c1coc(-c2ccnc(C)c2)n1 (stereo not shown) [Compound I-15]
IC50 [2]: 0.9 nM | half-life ([1]; in vivo): 6 h | AUC(0-t) ([1]; plasma): 8230 ng·h/mL | Cmax ([1]; plasma): 1380 ng/mL | Tmax ([1]; plasma): 5.9 h | IC50 (IRAK4 kinase): 0.7 nM

Compound: Cc1cc(-c2nc(C(=O)Nc3cc4cn(CCS(=N)(=O)c5ccncc5)nc4cc3C(C)(C)O)co2)ccn1 (stereo not shown) [Compound I-16]
MTD at 6 days (in vivo): > 2000 mg/kg | IC50 [2]: 0.9 nM | half-life ([1]; in vivo): 6.3 h | AUC(0-t) ([1]; plasma): 9230 ng·h/mL | Cmax ([1]; plasma): 1360 ng/mL | Tmax ([1]; plasma): 6 h | IC50 (IRAK4 kinase): 0.5 nM

Results, then the compound that gave them:

IC50 [2]: 0.6 nM | IC50 (IRAK4 kinase): 0.6 nM
Compound: N=S(=O)(CCn1cc2cc(NC(=O)c3cccc(C(F)(F)F)n3)c(N3CCOCC3)cc2n1)c1ccccc1 (stereo not shown) [Compound I-3]

IC50 [2]: 1.3 nM | half-life ([1]; in vivo): 4.7 h | AUC(0-t) ([1]; plasma): 8530 ng·h/mL | Cmax ([1]; plasma): 1500 ng/mL | Tmax ([1]; plasma): 6 h | IC50 (IRAK4 kinase): 0.3 nM
Compound: N=S(=O)(CCn1cc2cc(NC(=O)c3cccc(C(F)(F)F)n3)c(N3CCC(O)C3)cc2n1)c1ccccc1 (stereo not shown) [Compound I-4]

IC50 [2]: 1 nM | half-life ([1]; in vivo): 4.8 h | AUC(0-t) ([1]; plasma): 8520 ng·h/mL | Cmax ([1]; plasma): 1420 ng/mL | Tmax ([1]; plasma): 5.5 h | IC50 (IRAK4 kinase): 0.2 nM
Compound: COc1cc2nn(CCS(=N)(=O)c3ccnc4ccccc34)cc2cc1NC(=O)c1cccc(C(F)(F)F)n1 (stereo not shown) [Compound I-9]

IC50 [2]: 0.8 nM | IC50 (IRAK4 kinase): 0.5 nM
Compound: N=S(=O)(CCn1cc2cc(NC(=O)c3cccc(C(F)(F)F)n3)c(N3CCOCC3)cc2n1)c1ccnc2ccccc12 (stereo not shown) [Compound I-11]

IC50 [2]: 0.6 nM | IC50 (IRAK4 kinase): 0.3 nM
Compound: N=S(=O)(CCn1cc2cc(NC(=O)c3cccc(C(F)(F)F)n3)c(N3CCC(O)C3)cc2n1)c1ccnc2ccccc12 (stereo not shown) [Compound I-12]
